Laboratory results reported in PubChem BioAssay (NCI).
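Protocol summary: plate cells (96-well), add compound at 5 concentrations, incubate 48 h, interpolate endpoints linearly. GI50 is the concentration that inhibits growth by half. The concentration for full growth arrest is given as TGI.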 *1 amine or outer side, *2 acyl side, *3 side chain or, on linkers, in order; H or OH if unused. Where a SMILES comes first, the peptide text is derived from it. Bridges are numbered along the chain shown (N, C = ends). Roman numbers before positions name the chains, in order. [ ]: non-standard residue; d: D form. Actinocin(9to1) = Cc1c2oc3c(C)ccc(C(=O)[*:1])c3nc-2c(C(=O)[*:2])c(N)c1=O; NMeV = CN[CH](C(=O)O)C(C)C; Sar = CNCC(=O)O

Legend:
Test in all cases: growth of human tumour cells (NCI), 48 h
MDA-MB-231 breast = system: MDA-MB-231 breast
SK-MEL-5 melanoma = system: SK-MEL-5 melanoma
786-0 renal = system: 786-0 renal
M14 melanoma = system: M14 melanoma
ACHN renal = system: ACHN renal
NCI-H460 lung = system: NCI-H460 lung
NCI/ADR-RES ovarian = system: NCI/ADR-RES ovarian
UACC-62 melanoma = system: UACC-62 melanoma
A498 renal = system: A498 renal
HOP-62 NSCLC = system: HOP-62 NSCLC

Row | Compound | TGI (MDA-MB-231 breast) [µM] | TGI (SK-MEL-5 melanoma) [µM] | TGI (786-0 renal) [µM] | TGI (M14 melanoma) [µM] | TGI (ACHN renal) [µM] | TGI (NCI-H460 lung) [µM] | TGI (NCI/ADR-RES ovarian) [µM] | TGI (UACC-62 melanoma) [µM] | TGI (A498 renal) [µM] | TGI (HOP-62 NSCLC) [µM] | GI50 (HOP-62 NSCLC) [µM] | GI50 (MDA-MB-231 breast) [µM] | GI50 (SK-MEL-5 melanoma) [µM] | GI50 (M14 melanoma) [µM] | GI50 (ACHN renal) [µM] | GI50 (NCI-H460 lung) [µM] | GI50 (NCI/ADR-RES ovarian) [µM] | GI50 (UACC-62 melanoma) [µM] | GI50 (A498 renal) [µM]
1 | CCCNC(C#N)c1ccc(C(C#N)NCCC)cc1 (stereo unspecified) | > 100 | > 100 | > 100 | > 100 | > 100 | > 100 | > 100 | > 100 | > 100 |  |  |  |  |  |  |  |  |  | 
2 | O=C1COc2ccc([N+](=O)[O-])cc2C(=O)C1 | > 10 | > 10 | > 10 | > 10 | > 10 | > 10 | > 10 | > 10 | > 10 | > 10 |  |  |  |  |  |  |  |  | 
3 | CC(=O)OC(OC(C)=O)n1cc(C=O)c2ccccc21 | > 100 | > 100 |  | > 100 | > 100 | > 100 | > 100 |  | > 100 | > 100 |  |  |  |  |  |  |  |  | 
4 | CSc1c(C#N)c(=O)[nH]c2n[nH]c(C)c12 | > 100 | > 100 | > 100 | > 100 |  | > 100 | > 100 | > 100 | > 100 |  |  |  |  |  |  |  |  |  | 
5 | CSC1=C(C#N)C(=O)N(c2ccc(C)cc2)C(=S)C1C#N (stereo unspecified) | > 100 | > 100 | > 100 | > 100 | > 100 | > 100 | > 100 | > 100 | > 100 | > 100 |  |  |  |  |  |  |  |  | 
6 | NC(=O)c1ccc2c(c1)S(=O)(=O)c1ccccc1C2=O | > 100 | > 100 | > 100 | > 100 | > 100 | > 100 | > 100 | > 100 | > 100 | > 100 |  |  |  |  |  |  |  |  | 
7 | COC(=O)c1cc(C#N)[nH]c1-c1ccc(C)s1 | > 100 |  | > 100 | > 100 | > 100 | > 100 | > 100 | > 100 | 68.1 | > 100 |  |  |  |  |  |  |  |  | 
8 | Cc1sc(/N=C/c2c[nH]c3ccccc23)c(C#N)c1C | > 100 | 53.2 | > 100 | > 100 | > 100 | > 100 | > 100 | 78.8 | 96.7 | > 100 |  |  |  |  |  |  |  |  | 
9 | CCCCc1ccc(Nc2ncc3[nH]cnc3n2)cc1 | 30.3 | 31.1 | 54.3 | 38.9 | 31.7 |  | 46 | 49.6 | 45.4 | 37.2 |  |  |  |  |  |  |  |  | 
10 | COC(=O)/C=C1\CCC(C)(C(=O)NS(=O)(=O)c2ccc(C)cc2)C1(C)C (stereo unspecified) | > 100 | > 100 | > 100 | > 100 | > 100 | > 100 | > 100 | > 100 | > 100 | > 100 |  |  |  |  |  |  |  |  | 
11 | CCOC(=O)CNC(=O)C(C)NC(=O)C(NC(=O)CC(c1ncc[nH]1)c1ncc[nH]1)C(C)CC (stereo unspecified) | > 100 |  | > 100 | > 100 | > 100 | > 100 | > 100 | > 100 | > 100 |  |  |  |  |  |  |  |  |  | 
12 | Nc1ccccc1N/C=C\C(=O)C(Cl)(Cl)Cl | > 100 | > 100 | 28.3 | 31.8 | 35.1 | > 100 | > 100 | 35.9 | 38.9 | 37.2 |  |  |  |  |  |  |  |  | 
13 | O=[N+]([O-])c1ccc(N=Nc2c(O)c(S(=O)(=O)O)cc3cc(S(=O)(=O)O)ccc23)cc1 | > 100 | > 100 | > 100 | > 100 | > 100 | > 100 | > 100 | > 100 | > 100 | > 100 |  |  |  |  |  |  |  |  | 
14 | COC(=O)n1c(=O)n(-c2ccccc2)c(=O)n1C(=O)OC | > 100 | > 100 | > 100 | > 100 |  | > 100 | > 100 | > 100 | > 100 |  |  |  |  |  |  |  |  |  | 
15 | CC(CO)C1C[C@H](O)[C@@]2(C)CC(=O)C=C(CO)[C@@H]2C1 (stereo partly specified) | > 100 | > 100 | > 100 | > 100 | > 100 | > 100 | > 100 | > 100 | > 100 | > 100 |  |  |  |  |  |  |  |  | 
16 | CN(C)CCNC(=O)c1cccc2nc3c(nc12)-c1ccccc1C3=O | 23.8 | 25.1 | 30.2 | 31.9 | 32.1 | 18.9 | 39.3 | 60.4 | 29.5 | 16.6 |  |  |  |  |  |  |  |  | 
17 | Cc1nc2ccc(S(=O)(=O)O)cc2c(=O)n1-c1ccc(C(=O)NN2C(=O)C(Cl)C2c2ccccc2O)cc1 (stereo unspecified) | > 100 | > 100 | > 100 | > 100 | > 100 |  | > 100 |  | > 100 | > 100 |  |  |  |  |  |  |  |  | 
18 | O=c1c(C=Nc2ccc([N+](=O)[O-])cc2)c(O)n(-c2ccccc2)c(=O)n1-c1ccccc1 | > 100 | > 100 | > 100 | > 100 | > 100 | > 100 | > 100 | > 100 | > 100 | > 100 |  |  |  |  |  |  |  |  | 
19 | O=c1c2cc(I)ccc2nc(Sc2ncccc2[N+](=O)[O-])n1Cc1ccccc1 | > 100 | 91.6 | > 100 | > 100 | > 100 | > 100 | > 100 | > 100 | > 100 | > 100 |  |  |  |  |  |  |  |  | 
20 | OC1(c2cc3ccccc3s2)CCCCC1 | 87.5 | > 100 | > 100 | > 100 | > 100 | > 100 | > 100 | > 100 | > 100 | > 100 |  |  |  |  |  |  |  |  | 
21 | CC(C)(C)C1(COC(=O)c2ccc(N)cc2)COC1 | > 100 | > 100 | > 100 | > 100 | > 100 | > 100 | > 100 | > 100 | > 100 | > 100 |  |  |  |  |  |  |  |  | 
22 | CC[C@H](C)[C@H]1NC(=O)[C@@H](NC(=O)[C@@H](CC(C)C)N(C)CC2CCCN2C(=O)C(C)=O)[C@@H](C)OC(=O)[C@H](Cc2ccc(OC)cc2)N(C)C(=O)C2CCCN2C(=O)[C@H](CC(C)C)NC(=O)[C@@H](C)C(=O)[C@H](C(C)C)OC(=O)C[C@@H]1O (stereo partly specified) | 0.0251 | 0.00843 | 0.0118 | 0.00972 | 0.0389 | 0.00812 | 0.231 | 0.0182 | 0.0146 | 0.00713 |  |  |  |  |  |  |  |  | 
23 | Cc1ccc(C(C2C(=O)N(C)C(=O)N(C)C2=O)C(F)(F)C(=O)N(C)C)cc1 (stereo unspecified) | > 100 | > 100 | > 100 | > 100 | > 100 | > 100 | > 100 | > 100 | > 100 | > 100 |  |  |  |  |  |  |  |  | 
24 | CCc1ccc2[nH]c(O)c(-c3[nH]c4ccccc4c3N=O)c2c1 | 40.7 | 13.6 | 18.9 | 25.3 | 14.7 | 21 | 48.8 | 23 | 15 | 27.2 |  |  |  |  |  |  |  |  | 
25 | C=CCSC1=N/C(=C\c2ccccc2)C(=O)N1CC=C | > 100 | 37.3 | > 100 | > 100 | > 100 | > 100 | > 100 | > 100 | 83.9 | > 100 |  |  |  |  |  |  |  |  | 
26 | O=c1cc(N2CCCC2)[nH]c(=O)n1-c1cccc(C(F)(F)F)c1 | > 100 |  | > 100 | > 100 | > 100 | > 100 | > 100 | > 100 | > 100 | > 100 |  |  |  |  |  |  |  |  | 
27 | Cc1c2oc3c(C)ccc(C(=O)NC4C(=O)NC(C(C)O)C(=O)N5CCCC5C(=O)N(C)CC(=O)N(C)C(C(C)C)C(=O)OC4C)c3nc-2c(C(=O)NC2C(=O)NC(C(C)O)C(=O)N3CCCC3C(=O)N(C)CC(=O)N(C)C(C(C)C)C(=O)OC2C)c(N)c1=O (stereo unspecified) (I: TTP[Sar][NMeV] / II: TTP[Sar][NMeV]; ester I:1-I:C, II:1-II:C; linker I:N-II:N via Actinocin(9to1); configuration not given here) | > 100 | 1.74 |  | 3.77 | 10.9 | > 100 | > 100 | 0.528 | 2.71 | 10 |  |  |  |  |  |  |  |  | 
28 | C#CC(F)(F)[C@]1(O)CC[C@H]2[C@@H]3CCC4=CC(=O)CCC4=C3[C@@H](c3ccc(C(C)=O)cc3)C[C@@]21C | > 87.5 | 21.6 |  | > 84.9 | 97 | > 68.2 | 59 | 33.8 | 84.8 | 73.8 | 18.7 | 15.7 | 8.47 | 16.9 | 10.1 | 21.5 | 13.8 | 12.5 | 23.1
29 | CCOc1nc(-c2ccccc2)cc(-c2ccc(N3CCOCC3)cc2)c1C#N | > 100 | > 100 | > 100 | > 100 | > 100 | > 100 | > 100 |  | > 100 | > 100 |  |  |  |  |  |  |  |  | 
30 | O=C1/C(=C/c2ccccc2[N+](=O)[O-])N=C(c2ccccc2)N1C1Nc2cc3c(cc2S1)NC(N1C(=O)/C(=C/c2ccccc2[N+](=O)[O-])N=C1c1ccccc1)S3 (stereo unspecified) | > 100 | > 100 | 79.6 | > 100 | > 100 | > 100 | 97.4 |  | > 100 | > 100 |  |  |  |  |  |  |  |  | 
